US9714424B1, “RNAi inhibition of USP10 to treat ocular disorders” (ICAHN SCHOOL OF MEDICINE AT MOUNT SINAI, priority 2014, dated 2017)

Experiments:
[1] = test system: αv integrins αvβ1, β3, β5; assay: TGFβ activity assay, htert-SMAD reporter cells co-cultured with htert-USP10 cells, αv integrin blocking; assay type: cell-based, human; details: 100 nM, compared to control small molecule CWHM96
Description: TGFβ activity was measured using cell lines constitutively expressing pGreenFire Lenti-Reporter (System Biosciences) a reporter for SMAD activation. This reporter was used to generate TGFβ reporter cell lines with htert fibroblasts (htert-SMAD) and 293t cells (293t-SMAD). To assess TGFβ activity with USP10 overexpression, 50K Htert-SMAD cells were co-cultured with 50K cells constitutively overexpressing USP10 (htert-USP10) or control cells (htert cells expressing empty vector, htert-vector cells). After 24 hours, cells were removed with trypsin, pelleted, re-suspended in luciferase reagent, placed in wells in triplicate, and assayed for luciferase expression. To assess TGFβ activity when USP10 was silenced, USP10 and control siRNA were transiently transfected in 293t-SMAD cells and assayed as above. To assess TGFβ activity when av integrins were blocked, USP10 cells were treated with intergrin αv blocking small molecule or matched control small molecule and assayed as above.
It was previously reported that integrin αvβ5 directly activates TGFβ in myofibroblasts. […] First we confirmed that the htert-HCF line had low (undetectable) endogenous TGFβ activity so that the induction of TGFβ activity by USP10 could be quantified (data not shown). […] The next day, cells were lysed and luciferase substrate (Brightglo) was added prior to quantification of luciferase activity in each sample. […]

[2] = test system: USP10 expression; assay: USP10 protein expression in HCFs treated with TGFβ or TGFβ inhibitor; assay type: cell-based, human
Excerpt: Porcine corneas with scleral rims were mounted on an agarose/collagen base without wounding (control corneas) or after wounding through the anterior stroma with a trephine (wounded corneas). A-H immunostaining of paraffin embedded corneal slices comparing control to 2 weeks post-wounding. Compared to control fibrotic markers increased in the anterior stroma after wounding: (A, B) α-SMA 2.9-fold+/−0.8 ***p<0.005, (C) No primary antibody control, (D, E) USP10 2.5-fold+/−0.8 **p<0.01, and F) Pre-incubation with a USP10 blocking peptide reduced immunostaining. Bar=50 um. (G) Western blot of human and porcine primary epithelial cells (Epi) and stromal cells (Fibro).
Since TGFβ plays an important role in all wounding and fibrotic disease, we tested if TGFβ induced the expression of USP10. In the remaining cell culture studies unless otherwise noted, fibroblasts that have been passaged in serum-containing media are detached and plated on type I collagen in supplemented-serum free media (SSFM). In FIG. 4H, primary human corneal fibroblasts (HCFs) were treated with 1 ng/ml TGFβ for 2 days. TGFβ increased USP10 expression by 57% as compared to no treatment.

With `CC(C)(C)c1cc(Br)cc([C@H](CC(=O)O)NC(=O)CNC(=O)c2cc(O)cc(NC3=NCC(O)CN3)c2)c1` (stereo partly drawn) [CWHM12] the “USP10-mediated TGFβ activity, reduction” value [1] was 63%+/−6%.
In the case of `NC(=O)c1ccc(-c2nc(-c3ccc4c(c3)OCO4)c(-c3ccccn3)[nH]2)cc1` [SB431542], the “USP10 expression, decrease” value ([2]; blocking TGFβ-induced SMAD2/3 signaling) is reported as 44%.
“TGFβ: fibrotic growth factor, added at 1 ng/ml to HCFs” was tested, and the “USP10 expression, increase” value ([2]; 1 ng/ml for 2 days, compared to no treatment) was 57%.
